Tests used:
vcFabH1 = vcFabH1 (Vibrio cholerae serotype O1, UniProt Q9KQH5); test: biochemical; type: biochemical; conditions: for Reaction rate relative to that of acetyl-CoA: pH 7.5
vcFabH2 (C113A) = vcFabH2 (C113A) (Vibrio cholerae serotype O1, UniProt Q9KLJ3, C113A); type: binding; conditions: for Binding sites/molecule (Stoichiometry): pH 7.5
vcFabH2 (C356A) = vcFabH2 (C356A) (Vibrio cholerae serotype O1, UniProt Q9KLJ3, C356A); type: binding
vcFabH2 = vcFabH2 (Vibrio cholerae serotype O1, UniProt Q9KLJ3); test: biochemical; type: biochemical

SMILES | Hill coefficient n (vcFabH1) | Kd (vcFabH1) [µM] | Vmax (maximum activity) (vcFabH1) [μmol∙min^−1∙μmol^−1] | ΔH (vcFabH2 (C113A)) [kcal/mol] | ΔS (vcFabH2 (C113A)) [cal∙mol^−1∙K^−1] | Binding sites/molecule (Stoichiometry) (vcFabH2 (C113A)) | Binding sites/molecule (Stoichiometry) (vcFabH2 (C356A)) | ΔH (vcFabH2 (C356A)) [kcal/mol] | ΔS (vcFabH2 (C356A)) [cal∙mol^−1∙K^−1] | Reaction rate relative to that of acetyl-CoA (vcFabH1) | Hill coefficient n (vcFabH2) | Kd (vcFabH2) [µM] | Vmax (maximum activity) (vcFabH2) [μmol∙min^−1∙μmol^−1]
CC(=O)SCCNC(=O)CCNC(=O)[C@H](O)C(C)(C)COP(=O)(O)OP(=O)(O)OC[C@H]1O[C@@H](n2cnc3c(N)ncnc32)[C@H](O)[C@@H]1OP(=O)(O)O [Acetyl-CoA] | 1.6±0.2 | 21.2 ± 2.9 | 14.0±1.1 | -14.49 | −34.70 | 0.69 ± 0.05 | – | – | – | – | – | – | –
CCCC(=O)SCCNC(=O)CCNC(=O)[C@H](O)C(C)(C)COP(=O)(O)OP(=O)(O)OC[C@H]1O[C@@H](n2cnc3c(N)ncnc32)[C@H](O)[C@@H]1OP(=O)(O)O [Butyryl-CoA] | – | – | – | -8.259 | −12.00 | 0.87 ± 0.03 | – | – | – | – | – | – | –
CCCCCCCCCC(=O)SCCNC(=O)CCNC(=O)[C@H](O)C(C)(C)COP(=O)(O)OP(=O)(O)OC[C@H]1O[C@@H](n2cnc3c(N)ncnc32)[C@H](O)[C@@H]1OP(=O)(O)O [Decanoyl-CoA] | – | – | – | -7.457 | −4.24 | 1.36 ± 0.01 | 1 | -11.68 | −25.30 | – | – | – | –
CCCCCC(=O)SCCNC(=O)CCNC(=O)[C@H](O)C(C)(C)COP(=O)(O)OP(=O)(O)OC[C@H]1O[C@@H](n2cnc3c(N)ncnc32)[C@H](O)[C@@H]1OP(=O)(O)O [Hexanoyl-CoA] | – | – | – | -11.78 | −22.10 | 0.878 ± 0.004 | 1 | -1.847 | 8.50 | lower than 20% | – | – | –
CC(C)C(=O)SCCNC(=O)CCNC(=O)[C@H](O)C(C)(C)COP(=O)(O)OP(=O)(O)OC[C@H]1O[C@@H](n2cnc3c(N)ncnc32)[C@H](O)[C@@H]1OP(=O)(O)O [Isobutyryl-CoA] | – | – | – | -8.57 | −13.00 | 0.77 ± 0.18 | – | – | – | – | – | – | –
CC(C)CC(=O)SCCNC(=O)CCNC(=O)[C@H](O)C(C)(C)COP(=O)(O)OP(=O)(O)OC[C@H]1O[C@@H](n2cnc3c(N)ncnc32)[C@H](O)[C@@H]1OP(=O)(O)O [Isovaleryl-CoA] | – | – | – | -9.347 | −16.20 | 0.74 ± 0.03 | – | – | – | lower than 20% | – | – | –
CCCCCCCCCCCC(=O)SCCNC(=O)CCNC(=O)[C@H](O)C(C)(C)COP(=O)(O)OP(=O)(O)OC[C@H]1O[C@@H](n2cnc3c(N)ncnc32)[C@H](O)[C@@H]1OP(=O)(O)O [Lauroyl-CoA] | – | – | – | -6.563 | −4.60 | 1.38 ± 0.02 | – | – | – | – | – | – | –
CCCCCCCC(=O)SCCNC(=O)CCNC(=O)[C@H](O)C(C)(C)COP(=O)(O)OP(=O)(O)OC[C@H]1O[C@@H](n2cnc3c(N)ncnc32)[C@H](O)[C@@H]1OP(=O)(O)O [Octanoyl-CoA] | – | – | – | -12.67 | −22.30 | 0.90 ± 0.01 | 1 | -3.414 | 4.43 | lower than 20% | 1.8±0.2 | 24.2 ± 2.2 | 18.0±1.1

Reference: article PMC6105497 (The FEBS journal, 2018)
